Results reported in article PMC11995724, “Antibiotic target discovery by integrated phenotypic and activity-based profiling of electrophilic fragments” (Cell chemical biology, 2025).
Structures can show the parent of a compound that is named as a salt.

Experiment: in vitro
Details: human, hek293t cells
Procedure: Mammalian cytotoxicity measurement was performed using Cell Titer-Glo 2.0 Cell Viability Assay (Promega, G9243) according to the manufacturer protocol. In brief, mammalian cells were seeded into 384-well white plates (Greiner, 781080) and incubated at 37°C for one day. Compounds from the Cys-Library were dispensed into the assay plate using epMotion 96. The plates were then incubated at 37°C for two days. An equal volume of Cell Titer-Glo 2.0 reagent was added into each well of the assay plate using epMotion 96 and incubated at 22°C for 10 min, followed by luminescence measurement using a Cytation 5 plate reader (BioTek).

SMILES: CC(Cl)C(=O)NCc1cccc(Cn2cnc3ccccc32)c1 (stereo not drawn) [6-O16, N-({3-[(1H-1,3-benzodiazol-1-yl)methyl]phenyl}methyl)-2-chloropropanamide]
- viability at 48 h, 25 µM: 116%

SMILES: O=C(CCl)Nc1cccnn1 [6-O17, 2-chloro-N-(pyridazin-3-yl)acetamide hydrochloride]
- viability at 48 h, 25 µM: 118%

SMILES: O=C(CCl)NC(c1ccccc1)C1CCCC1 (stereo not drawn) [6-O18, 2-chloro-N-[cyclopentyl(phenyl)methyl]acetamide]
- viability at 48 h, 25 µM: 8.29%

SMILES: O=C(CCl)NC1CCCS(=O)(=O)c2ccccc21 (stereo not drawn) [6-O19, 2-chloro-N-(1,1-dioxo-2,3,4,5-tetrahydro-1lambda6-benzothiepin-5-yl)acetamide]
- viability at 48 h, 25 µM: 5.88%

SMILES: C[C@@H](NC(=O)CCl)c1ccccc1 [6-O20, 2-chloro-N-[(1R)-1-phenylethyl]acetamide]
- viability at 48 h, 25 µM: 121%

SMILES: CCN(Cc1ccccc1)C(=O)CCl [6-O21, N-benzyl-2-chloro-N-ethylacetamide]
- viability at 48 h, 25 µM: 1.53%

SMILES: COCc1ccc(CNC(=O)CCl)cc1 [6-O22, 2-chloro-N-{[4-(methoxymethyl)phenyl]methyl}acetamide]
- viability at 48 h, 25 µM: 99.4%

SMILES: CC(Cl)C(=O)N1CCNC(=O)C1Cc1nc2ccccc2o1 (stereo not drawn) [6-P03, 3-[(1,3-benzoxazol-2-yl)methyl]-4-(2-chloropropanoyl)piperazin-2-one]
- viability at 48 h, 25 µM: 110%

SMILES: COc1ccc(C2=NN(C(=O)CCl)C(c3cccc(F)c3)C2)cc1 (stereo not drawn) [6-P04, 2-chloro-1-[5-(3-fluorophenyl)-3-(4-methoxyphenyl)-4,5-dihydro-1H-pyrazol-1-yl]ethan-1-one]
- viability at 48 h, 25 µM: 0.182%

SMILES: CC(Cl)C(=O)NCc1cnc(N2CCOCC2)s1 (stereo not drawn) [6-P05, 2-chloro-N-{[2-(morpholin-4-yl)-1,3-thiazol-5-yl]methyl}propanamide]
- viability at 48 h, 25 µM: 116%

SMILES: CC(Cl)C(=O)NC(=O)NCc1ccccc1 (stereo not drawn) [6-P06, 1-benzyl-3-(2-chloropropanoyl)urea]
- viability at 48 h, 25 µM: 123%

SMILES: CC(Cl)C(=O)NC(C)c1nc(-c2cccnc2)cs1 (stereo not drawn) [6-P07, 2-chloro-N-{1-[4-(pyridin-3-yl)-1,3-thiazol-2-yl]ethyl}propanamide]
- viability at 48 h, 25 µM: 115%

SMILES: CC(Cl)C(=O)Nc1ccc(F)c(F)c1 (stereo not drawn) [6-P08, 2-chloro-N-(3,4-difluorophenyl)propanamide]
- viability at 48 h, 25 µM: 101%

SMILES: CC(Cl)C(=O)NC(C)C(c1ccccc1Cl)n1cccn1 (stereo not drawn) [6-P09, 2-chloro-N-[1-(2-chlorophenyl)-1-(1H-pyrazol-1-yl)propan-2-yl]propanamide]
- viability at 48 h, 25 µM: 119%

SMILES: COc1ccc(CNC(=O)C(C)Cl)cc1OC (stereo not drawn) [6-P10, 2-chloro-N-[(3,4-dimethoxyphenyl)methyl]propanamide]
- viability at 48 h, 25 µM: 113%

SMILES: CC(Cl)C(=O)N(Cc1cnn(C)c1)c1ccc(F)cc1 (stereo not drawn) [6-P11, 2-chloro-N-(4-fluorophenyl)-N-[(1-methyl-1H-pyrazol-4-yl)methyl]propanamide]
- viability at 48 h, 25 µM: 114%

SMILES: CC(Cl)C(=O)NC(C)c1ccns1 (stereo not drawn) [6-P12, 2-chloro-N-[1-(1,2-thiazol-5-yl)ethyl]propanamide]
- viability at 48 h, 25 µM: 115%

SMILES: CC(Cl)C(=O)NC(C)c1ncn(C)n1 (stereo not drawn) [6-P13, 2-chloro-N-[1-(1-methyl-1H-1,2,4-triazol-3-yl)ethyl]propanamide]
- viability at 48 h, 25 µM: 112%

SMILES: CC(Cl)C(=O)N[C@@H]1CCc2c(C#N)cccc21 (stereo partly drawn) [6-P14, 2-chloro-N-[(1R)-4-cyano-2,3-dihydro-1H-inden-1-yl]propanamide]
- viability at 48 h, 25 µM: 114%

SMILES: CC(Cl)C(=O)Nc1ccc2c(c1)ncn2CCN(C)C (stereo not drawn) [6-P15, 2-chloro-N-{1-[2-(dimethylamino)ethyl]-1H-1,3-benzodiazol-5-yl}propanamide]
- viability at 48 h, 25 µM: 113%

SMILES: CC(Cl)C(=O)N1CCN(C(c2ccccc2)C(F)(F)F)CC1 (stereo not drawn) [6-P16, 2-chloro-1-[4-(2,2,2-trifluoro-1-phenylethyl)piperazin-1-yl]propan-1-one]
- viability at 48 h, 25 µM: 114%

SMILES: CC(Cl)C(=O)N1CCN(Cc2cc(=O)n3ccsc3n2)CC1 (stereo not drawn) [6-P17, 7-{[4-(2-chloropropanoyl)piperazin-1-yl]methyl}-5H-[1,3]thiazolo[3,2-a]pyrimidin-5-one]
- viability at 48 h, 25 µM: 113%

SMILES: CC(Cl)C(=O)N1CCCC(CC(=O)OC(C)(C)C)CC1 (stereo not drawn) [6-P18, tert-butyl 2-[1-(2-chloropropanoyl)azepan-4-yl]acetate]
- viability at 48 h, 25 µM: 93.9%

SMILES: Cc1noc(C)c1C(C)CNC(=O)C(C)Cl (stereo not drawn) [6-P19, 2-chloro-N-[2-(3,5-dimethyl-1,2-oxazol-4-yl)propyl]propanamide]
- viability at 48 h, 25 µM: 115%

SMILES: CC(Cl)C(=O)N(C)Cc1cc(Cl)cn1C (stereo not drawn) [6-P21, 2-chloro-N-[(4-chloro-1-methyl-1H-pyrrol-2-yl)methyl]-N-methylpropanamide]
- viability at 48 h, 25 µM: 103%

SMILES: O=C(CCl)NC1CN(C(=O)C2CC2)C1 [6-P22, 2-chloro-N-(1-cyclopropanecarbonylazetidin-3-yl)acetamide]
- viability at 48 h, 25 µM: 112%

SMILES: CC(Cl)C(=O)N1CCCCC1c1cnn(C)c1 (stereo not drawn) [7-A03, 2-chloro-1-[2-(1-methyl-1H-pyrazol-4-yl)piperidin-1-yl]propan-1-one]
- viability at 48 h, 25 µM: 98.8%

SMILES: CC(Cl)C(=O)NCc1nc(N(C)C)no1 (stereo not drawn) [7-A04, 2-chloro-N-{[3-(dimethylamino)-1,2,4-oxadiazol-5-yl]methyl}propanamide]
- viability at 48 h, 25 µM: 92.2%

SMILES: CC(Cl)C(=O)NCc1nc2c(s1)CC(c1ccccc1)CC2 (stereo not drawn) [7-A05, 2-chloro-N-[(6-phenyl-4,5,6,7-tetrahydro-1,3-benzothiazol-2-yl)methyl]propanamide]
- viability at 48 h, 25 µM: 57.5%

SMILES: CC(Cl)C(=O)NCC1(C2CC2)CCC1 (stereo not drawn) [7-A06, 2-chloro-N-[(1-cyclopropylcyclobutyl)methyl]propanamide]
- viability at 48 h, 25 µM: 81.1%

SMILES: CC(Cl)C(=O)NCC(C)c1nncn1C (stereo not drawn) [7-A07, 2-chloro-N-[2-(4-methyl-4H-1,2,4-triazol-3-yl)propyl]propanamide]
- viability at 48 h, 25 µM: 84.8%

SMILES: CC(Cl)C(=O)N1CCCC(n2ccc(C(F)(F)F)n2)C1 (stereo not drawn) [7-A08, 2-chloro-1-{3-[3-(trifluoromethyl)-1H-pyrazol-1-yl]piperidin-1-yl}propan-1-one]
- viability at 48 h, 25 µM: 80.7%

SMILES: CC(Cl)C(=O)N1CCOCC1c1cccn1C (stereo not drawn) [7-A09, 2-chloro-1-[3-(1-methyl-1H-pyrrol-2-yl)morpholin-4-yl]propan-1-one]
- viability at 48 h, 25 µM: 82%

SMILES: CC(Cl)C(=O)NCc1nnc(C2CCC2)n1C (stereo not drawn) [7-A10, 2-chloro-N-[(5-cyclobutyl-4-methyl-4H-1,2,4-triazol-3-yl)methyl]propanamide]
- viability at 48 h, 25 µM: 87.1%

SMILES: CC(Cl)C(=O)NC1(c2ccccc2)CCOCC1 (stereo not drawn) [7-A11, 2-chloro-N-(4-phenyloxan-4-yl)propanamide]
- viability at 48 h, 25 µM: 108%

SMILES: CC(Cl)C(=O)NCc1cc(-c2ccccc2)on1 (stereo not drawn) [7-A13, 2-chloro-N-[(5-phenyl-1,2-oxazol-3-yl)methyl]propanamide]
- viability at 48 h, 25 µM: 74.7%

SMILES: CC(Cl)C(=O)NCCc1cn(C)nn1 (stereo not drawn) [7-A14, 2-chloro-N-[2-(1-methyl-1H-1,2,3-triazol-4-yl)ethyl]propanamide]
- viability at 48 h, 25 µM: 82.7%

SMILES: CC(Cl)C(=O)N1CCN(Cc2ccc3ccccc3n2)CC1 (stereo not drawn) [7-A15, 2-chloro-1-{4-[(quinolin-2-yl)methyl]piperazin-1-yl}propan-1-one]
- viability at 48 h, 25 µM: 83.2%

SMILES: Cc1ccc(N2CCN(C(=O)C(C)Cl)CC2=O)o1 (stereo not drawn) [7-A16, 4-(2-chloropropanoyl)-1-(5-methylfuran-2-yl)piperazin-2-one]
- viability at 48 h, 25 µM: 74.7%
